The test deals with T1, human DP2 receptor (Homo sapiens, UniProt Q9Y5Y4).
T1 construct: expressed in transfected cells; host or cells: CHO-K1 FLP-In (Invitrogen, catalog no. R758-07), stably transfected
T1 sequence (Q9Y5Y4 1-395): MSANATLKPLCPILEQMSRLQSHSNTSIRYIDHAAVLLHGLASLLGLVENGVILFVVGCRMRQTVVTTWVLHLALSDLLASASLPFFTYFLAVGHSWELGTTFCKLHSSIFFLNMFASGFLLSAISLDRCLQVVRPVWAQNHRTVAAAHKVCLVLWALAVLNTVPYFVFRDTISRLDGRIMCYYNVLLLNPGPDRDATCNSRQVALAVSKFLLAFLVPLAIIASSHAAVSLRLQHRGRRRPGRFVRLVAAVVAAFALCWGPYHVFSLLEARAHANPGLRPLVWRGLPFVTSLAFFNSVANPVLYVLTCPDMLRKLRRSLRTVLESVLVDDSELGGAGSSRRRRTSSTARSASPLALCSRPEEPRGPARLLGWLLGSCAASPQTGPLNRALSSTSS
The test is described as follows: Prostaglandin D2 binding inhibition assay (scintillation proximity assay, 3H PGD2, membranes of transfected CHO cells). The note with it: SPA, 5.5 nM 3H PGD2, CHO-K1 FLP-In human DP2 membranes; upper limit determinable 30 μM; read-out: IC50 ranges for inhibition of PGD2 binding to human DP2. A digest of the protocol: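 Membranes (5 μg) from CHO-K1 cells stably expressing human DP2 were mixed with WGA SPA beads and 5.5 nM 3H PGD2 in Tris buffer with 10 mM MgCl2, 100 mM NaCl, 0.1% BSA, plus compound. After 60 min at room temperature, CPM were read; IC50 from two-parameter nonlinear regression.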
In the case of `Cc1ccc(S(=O)(=O)N2CCC[C@@H](n3c(=O)n(CC(=O)O)c4cccnc43)C2)c(F)c1` [Compound 116, (R)-2-(3-(1-(2-fluoro-4-methylphenylsulfonyl)piperidin-3-yl)-2-oxo-2,3-dihydro-1H-imidazo[4,5-b]pyridin-1-yl)acetic acid], the 50% inhibitory concentration (IC50) was less than 1 µM.

For `Cc1ccnc2c1n(CC(=O)O)c(=O)n2C1CCN(S(=O)(=O)c2ccccc2S(C)(=O)=O)CC1` [Compound 117, 2-(7-methyl-3-(1-(2-(methylsulfonyl)phenylsulfonyl)piperidin-4-yl)-2-oxo-2,3-dihydro-1H-imidazo[4,5-b]pyridin-1-yl)acetic acid], the IC50 was more than 30 µM.

`Cc1ccc(S(=O)(=O)N2CCC(n3c(=O)n(CC(=O)O)c4c(C)ccnc43)CC2)c(F)c1` [Compound 118, 2-(3-(1-(2-fluoro-4-methylphenylsulfonyl)piperidin-4-yl)-7-methyl-2-oxo-2,3-dihydro-1H-imidazo[4,5-b]pyridin-1-yl)acetic acid]: the IC50 was more than 30 µM.

As for `Cc1cc(F)ccc1S(=O)(=O)N1CCC(n2c(=O)n(CC(=O)O)c3c(C)ccnc32)CC1` [Compound 119, 2-(3-(1-(4-fluoro-2-methylphenylsulfonyl)piperidin-4-yl)-7-methyl-2-oxo-2,3-dihydro-1H-imidazo[4,5-b]pyridin-1-yl)acetic acid], the concentration for half-maximal inhibition (IC50) was more than 30 µM.

Consider `Cc1ccnc2c1n(CC(=O)O)c(=O)n2C1CCN(S(=O)(=O)c2ccc(F)cc2Cl)CC1` [Compound 120, 2-(3-(1-(2-chloro-4-fluorophenylsulfonyl)piperidin-4-yl)-7-methyl-2-oxo-2,3-dihydro-1H-imidazo[4,5-b]pyridin-1-yl)acetic acid], for which the 50% inhibitory concentration (IC50) is more than 30 µM.

`Cc1ccnc2c1n(CC(=O)O)c(=O)n2C1CCN(S(=O)(=O)c2ccccc2Cl)CC1` [Compound 121, 2-(3-(1-(2-chlorophenylsulfonyl)piperidin-4-yl)-7-methyl-2-oxo-2,3-dihydro-1H-imidazo[4,5-b]pyridin-1-yl)acetic acid]: the concentration for half-maximal inhibition (IC50) was more than 30 µM.

For the compound `Cc1ccnc2c1n(CC(=O)O)c(=O)n2C1CCN(S(=O)(=O)c2ccc(Cl)cc2Cl)CC1` [Compound 122, 2-(3-(1-(2,4-dichlorophenylsulfonyl)piperidin-4-yl)-7-methyl-2-oxo-2,3-dihydro-1H-imidazo[4,5-b]pyridin-1-yl)acetic acid], the half-maximal inhibitory concentration (IC50) was more than 30 µM.

As for `Cc1cnc2c(c1)n(CC(=O)O)c(=O)n2C1CCN(S(=O)(=O)c2ccccc2S(C)(=O)=O)CC1` [Compound 123, 2-(6-methyl-3-(1-(2-(methylsulfonyl)phenylsulfonyl)piperidin-4-yl)-2-oxo-2,3-dihydro-1H-imidazo[4,5-b]pyridin-1-yl)acetic acid], the IC50 is more than 30 µM.

Consider `Cc1ccc(S(=O)(=O)N2CCC(n3c(=O)n(CC(=O)O)c4cc(C)cnc43)CC2)c(F)c1` [Compound 124, 2-(3-(1-(2-fluoro-4-methylphenylsulfonyl)piperidin-4-yl)-6-methyl-2-oxo-2,3-dihydro-1H-imidazo[4,5-b]pyridin-1-yl)acetic acid], for which the IC50 lay within 1 to 10 µM.

For the compound `Cc1cnc2c(c1)n(CC(=O)O)c(=O)n2C1CCN(S(=O)(=O)c2ccc(F)cc2C)CC1` [Compound 125, 2-(3-(1-(4-fluoro-2-methylphenylsulfonyl)piperidin-4-yl)-6-methyl-2-oxo-2,3-dihydro-1H-imidazo[4,5-b]pyridin-1-yl)acetic acid], the IC50 lay within 10 to 30 µM.

For the compound `Cc1cnc2c(c1)n(CC(=O)O)c(=O)n2C1CCN(S(=O)(=O)c2ccc(F)cc2Cl)CC1` [Compound 126, 2-(3-(1-(2-chloro-4-fluorophenylsulfonyl)piperidin-4-yl)-6-methyl-2-oxo-2,3-dihydro-1H-imidazo[4,5-b]pyridin-1-yl)acetic acid], the half-maximal inhibitory concentration (IC50) is 10 to 30 µM.

In the case of `Cc1cnc2c(c1)n(CC(=O)O)c(=O)n2C1CCN(S(=O)(=O)c2ccccc2Cl)CC1` [Compound 127, 2-(3-(1-(2-chlorophenylsulfonyl)piperidin-4-yl)-6-methyl-2-oxo-2,3-dihydro-1H-imidazo[4,5-b]pyridin-1-yl)acetic acid], the IC50 lay within 1 to 10 µM.

As to `O=C(O)Cn1c(=O)n(C2CCN(S(=O)(=O)c3ccc(F)cc3Cl)CC2)c2cccnc21` [Compound 132, 2-(1-(1-(2-chloro-4-fluorophenylsulfonyl)piperidin-4-yl)-2-oxo-1H-imidazo[4,5-b]pyridin-3(2H)-yl)acetic acid], the IC50 was more than 30 µM.

With `O=C(O)Cn1c(=O)n(C2CCN(S(=O)(=O)c3ccccc3Cl)CC2)c2cccnc21` [Compound 133, 2-(1-(1-(2-chlorophenylsulfonyl)piperidin-4-yl)-2-oxo-1H-imidazo[4,5-b]pyridin-3(2H)-yl)acetic acid], the half-maximal inhibitory concentration (IC50) was more than 30 µM.

With `O=C(O)Cn1c(=O)n(C2CCN(S(=O)(=O)c3ccc(Cl)cc3Cl)CC2)c2cccnc21` [Compound 134, 2-(1-(1-(2,4-dichlorophenylsulfonyl)piperidin-4-yl)-2-oxo-1H-imidazo[4,5-b]pyridin-3(2H)-yl)acetic acid], the half-inhibitory concentration (IC50) is more than 30 µM.

On to `CS(=O)(=O)c1ccccc1S(=O)(=O)N1CCC(n2c(=O)n(CC(=O)O)c3ncccc32)CC1` [Compound 135, 2-(1-(1-(2-(methylsulfonyl)phenyl-sulfonyl)piperidin-4-yl)-2-oxo-1H-imidazo[4,5-b]pyridin-3(2H)-yl)acetic acid], for which the IC50 was more than 30 µM.

Take `O=C(O)Cn1c(=O)n(C2CCN(S(=O)(=O)c3ccc(F)cc3Cl)CC2)c2ccncc21` [Compound 140, 2-(1-(1-(2-chloro-4-fluorophenylsulfonyl)piperidin-4-yl)-2-oxo-1H-imidazo[4,5-c]pyridin-3(2H)-yl)acetic acid]: the IC50 is more than 30 µM.

Turning to `O=C(O)Cn1c(=O)n(C2CCN(S(=O)(=O)c3ccccc3Cl)CC2)c2ccncc21` [Compound 141, 2-(1-(1-(2-chlorophenylsulfonyl)piperidin-4-yl)-2-oxo-1H-imidazo[4,5-c]pyridin-3(2H)-yl)acetic acid], the IC50 is more than 30 µM.

As to `O=C(O)Cn1c(=O)n(C2CCN(S(=O)(=O)c3ccc(Cl)cc3Cl)CC2)c2ccncc21` [Compound 142, 2-(1-(1-(2,4-dichlorophenylsulfonyl)piperidin-4-yl)-2-oxo-1H-imidazo[4,5-c]pyridin-3(2H)-yl)acetic acid], the 50% inhibitory concentration (IC50) is more than 30 µM.

`CS(=O)(=O)c1ccccc1S(=O)(=O)N1CCC(n2c(=O)n(CC(=O)O)c3cnccc32)CC1` [Compound 143, 2-(1-(1-(2-(methylsulfonyl)phenylsulfonyl)piperidin-4-yl)-2-oxo-1H-imidazo[4,5-c]pyridin-3(2H)-yl)acetic acid]: the half-inhibitory concentration (IC50) is more than 30 µM.

Turning to `Cc1cc(F)ccc1S(=O)(=O)N1CCC(n2c(=O)n(CC(=O)O)c3cnccc32)CC1` [Compound 144, 2-(1-(1-(4-fluoro-2-methylphenylsulfonyl)piperidin-4-yl)-2-oxo-1H-imidazo[4,5-c]pyridin-3(2H)-yl)acetic acid], the half-maximal inhibitory concentration (IC50) is more than 30 µM.

With `CS(=O)(=O)c1ccccc1S(=O)(=O)N1CCC(n2c(=O)n(CC(=O)O)c3ccncc32)CC1` [Compound 149, 2-(3-(1-(2-(methylsulfonyl)phenylsulfonyl)piperidin-4-yl)-2-oxo-2,3-dihydro-1H-imidazo[4,5-c]pyridin-1-yl)acetic acid], the IC50 lay in the range of 1 to 10 µM.

Take `O=C(O)Cn1c(=O)n(C2CCN(S(=O)(=O)c3ccc(F)cc3Cl)CC2)c2cnccc21` [Compound 150, 2-(3-(1-(2-chloro-4-fluorophenylsulfonyl)piperidin-4-yl)-2-oxo-2,3-dihydro-1H-imidazo[4,5-c]pyridin-1-yl)acetic acid]: the IC50 was more than 30 µM.

By IC50 is commonly meant the point on the concentration scale where inhibition reaches its midpoint.
